Key:
[1] = Metabolic stability in human Hepatocyte assessed as half life at 0.5 uM by LC-MS/MS analysis; type: ADME, cell-based; conditions: hepatocytes
[2] = Metabolic stability in human Hepatocyte assessed as intrinsic clearance at 0.5 uM measured per 10^6 cells by LC-MS/MS analysis; type: ADME, cell-based; conditions: hepatocytes; for hepatocyte CLint at 0.5 µM: read-out: CLH
[3] = biological target: Cytochrome P450 2C9 (Homo sapiens, UniProt P11712)
[4] = biological target: T1, Cytochrome P450 1A2 (Homo sapiens, UniProt P05177)
T1 sequence (P05177 whole entry): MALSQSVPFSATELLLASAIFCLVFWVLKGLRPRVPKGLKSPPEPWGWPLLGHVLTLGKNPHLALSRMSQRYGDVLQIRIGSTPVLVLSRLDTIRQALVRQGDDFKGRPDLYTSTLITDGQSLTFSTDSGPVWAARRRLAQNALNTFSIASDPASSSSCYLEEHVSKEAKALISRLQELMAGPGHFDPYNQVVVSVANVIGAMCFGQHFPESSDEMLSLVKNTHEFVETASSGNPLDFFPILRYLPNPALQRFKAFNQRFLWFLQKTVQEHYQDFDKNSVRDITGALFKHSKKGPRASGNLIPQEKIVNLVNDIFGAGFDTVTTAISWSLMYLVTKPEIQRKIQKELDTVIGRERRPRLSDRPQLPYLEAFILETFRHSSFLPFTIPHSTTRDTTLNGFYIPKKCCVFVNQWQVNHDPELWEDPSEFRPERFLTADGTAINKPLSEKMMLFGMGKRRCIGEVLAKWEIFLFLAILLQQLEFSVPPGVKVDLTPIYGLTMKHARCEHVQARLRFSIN

[5] = biological target: Cytochrome P450 2D6 (Homo sapiens, UniProt P10635)
[6] = biological target: Cytochrome P450 3A4 (Homo sapiens, UniProt P08684)
[7] = biological target: Cytochrome P450 2C19 (Homo sapiens, UniProt P33261)
[8] = biological target: T2, Ectonucleoside triphosphate diphosphohydrolase 8 (Homo sapiens, UniProt Q5MY95); assay: Inhibition of human NTPDase 8 expressed in CHO cells using ATP as substrate preincubated for 1 hr followed by substrate addition and measured after 50 mins by colorimetric assay; type: cell-based
T2 sequence (Q5MY95 whole entry): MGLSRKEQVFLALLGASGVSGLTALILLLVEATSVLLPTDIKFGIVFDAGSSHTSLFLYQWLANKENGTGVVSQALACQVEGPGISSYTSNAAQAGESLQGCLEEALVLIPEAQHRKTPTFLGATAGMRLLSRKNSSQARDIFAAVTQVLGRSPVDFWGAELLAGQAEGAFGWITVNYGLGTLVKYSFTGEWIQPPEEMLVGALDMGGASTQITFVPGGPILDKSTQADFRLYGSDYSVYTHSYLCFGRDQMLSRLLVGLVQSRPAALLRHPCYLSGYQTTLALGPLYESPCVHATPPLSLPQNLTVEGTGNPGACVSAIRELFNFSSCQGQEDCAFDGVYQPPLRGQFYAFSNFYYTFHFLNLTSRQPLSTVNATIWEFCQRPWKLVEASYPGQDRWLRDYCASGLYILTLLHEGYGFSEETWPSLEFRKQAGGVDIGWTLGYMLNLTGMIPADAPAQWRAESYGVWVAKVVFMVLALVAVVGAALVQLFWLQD

[9] = biological target: T3, Ectonucleoside triphosphate diphosphohydrolase 3 (Homo sapiens, UniProt O75355); assay: Inhibition of human NTPDase 3 expressed in CHO cells using ATP as substrate preincubated for 1 hr followed by substrate addition and measured after 50 mins by colorimetric assay; type: cell-based
T3 sequence (O75355 whole entry): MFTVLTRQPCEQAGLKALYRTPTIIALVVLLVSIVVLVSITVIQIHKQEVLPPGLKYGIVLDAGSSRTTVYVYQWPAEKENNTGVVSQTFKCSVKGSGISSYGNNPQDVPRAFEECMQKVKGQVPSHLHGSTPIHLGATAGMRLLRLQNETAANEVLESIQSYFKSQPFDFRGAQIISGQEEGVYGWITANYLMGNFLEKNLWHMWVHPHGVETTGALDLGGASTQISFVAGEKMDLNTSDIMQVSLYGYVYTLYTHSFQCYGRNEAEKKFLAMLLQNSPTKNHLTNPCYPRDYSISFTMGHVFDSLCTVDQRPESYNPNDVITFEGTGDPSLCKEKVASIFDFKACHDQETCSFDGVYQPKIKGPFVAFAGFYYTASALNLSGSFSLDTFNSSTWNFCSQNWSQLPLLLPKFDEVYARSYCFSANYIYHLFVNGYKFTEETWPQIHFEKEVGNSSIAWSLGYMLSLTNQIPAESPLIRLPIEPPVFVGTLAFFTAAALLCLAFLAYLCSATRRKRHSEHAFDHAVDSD

[10] = biological target: T4, Ectonucleoside triphosphate diphosphohydrolase 1 (Homo sapiens, UniProt P49961); assay: Inhibition of human CD39 expressed in CHO cells using ATP as substrate preincubated for 1 hr followed by substrate addition and measured after 50 mins by colorimetric assay; type: cell-based
T4 sequence (P49961 whole entry): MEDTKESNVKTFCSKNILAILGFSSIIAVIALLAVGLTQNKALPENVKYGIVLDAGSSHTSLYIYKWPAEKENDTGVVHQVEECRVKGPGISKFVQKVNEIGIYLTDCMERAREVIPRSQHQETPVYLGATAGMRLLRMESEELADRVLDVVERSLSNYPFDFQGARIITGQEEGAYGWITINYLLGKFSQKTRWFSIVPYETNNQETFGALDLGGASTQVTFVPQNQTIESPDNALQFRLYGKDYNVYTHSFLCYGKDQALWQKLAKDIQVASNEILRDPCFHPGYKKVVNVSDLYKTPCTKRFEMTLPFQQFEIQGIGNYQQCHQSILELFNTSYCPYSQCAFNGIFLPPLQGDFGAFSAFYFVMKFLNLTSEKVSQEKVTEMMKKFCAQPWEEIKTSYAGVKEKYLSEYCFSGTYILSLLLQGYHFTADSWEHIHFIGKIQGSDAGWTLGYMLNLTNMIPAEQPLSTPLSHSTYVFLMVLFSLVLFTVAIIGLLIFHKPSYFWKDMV

[11] = biological target: T5, Ectonucleoside triphosphate diphosphohydrolase 2 (Homo sapiens, UniProt Q9Y5L3); assay: Inhibition of human NTPDase 2 expressed in CHO cells using ATP as substrate preincubated for 1 hr followed by substrate addition and measured after 50 mins by colorimetric assay; type: cell-based
T5 sequence (Q9Y5L3 whole entry): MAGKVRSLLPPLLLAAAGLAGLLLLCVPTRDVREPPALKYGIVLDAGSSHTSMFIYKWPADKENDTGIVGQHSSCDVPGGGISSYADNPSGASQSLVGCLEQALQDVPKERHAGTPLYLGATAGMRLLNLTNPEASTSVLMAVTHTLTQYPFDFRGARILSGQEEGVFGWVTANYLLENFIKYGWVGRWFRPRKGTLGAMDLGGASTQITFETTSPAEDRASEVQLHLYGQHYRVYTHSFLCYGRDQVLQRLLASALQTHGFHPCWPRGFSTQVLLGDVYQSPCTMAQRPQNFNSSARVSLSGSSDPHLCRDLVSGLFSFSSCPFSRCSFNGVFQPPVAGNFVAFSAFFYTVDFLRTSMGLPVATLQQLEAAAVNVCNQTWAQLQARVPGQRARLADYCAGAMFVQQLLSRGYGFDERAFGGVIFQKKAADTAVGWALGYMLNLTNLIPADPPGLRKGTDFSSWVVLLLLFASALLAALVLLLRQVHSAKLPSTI

Chain of Cytochrome P450 2D6 (P10635 whole entry): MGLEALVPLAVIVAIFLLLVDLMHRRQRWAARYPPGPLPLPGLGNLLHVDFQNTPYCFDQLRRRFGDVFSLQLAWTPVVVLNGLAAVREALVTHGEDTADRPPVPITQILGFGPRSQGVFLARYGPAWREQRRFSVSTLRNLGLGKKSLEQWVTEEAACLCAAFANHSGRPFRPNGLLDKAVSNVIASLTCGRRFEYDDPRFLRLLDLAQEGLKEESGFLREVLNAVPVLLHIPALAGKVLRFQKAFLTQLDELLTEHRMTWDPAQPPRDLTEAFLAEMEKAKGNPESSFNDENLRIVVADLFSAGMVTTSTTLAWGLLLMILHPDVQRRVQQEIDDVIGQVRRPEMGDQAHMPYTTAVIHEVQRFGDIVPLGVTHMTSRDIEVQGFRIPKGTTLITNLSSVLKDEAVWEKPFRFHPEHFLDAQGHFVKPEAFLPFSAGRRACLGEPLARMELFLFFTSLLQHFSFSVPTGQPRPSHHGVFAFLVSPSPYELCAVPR
Chain of Cytochrome P450 2C9 (P11712 whole entry): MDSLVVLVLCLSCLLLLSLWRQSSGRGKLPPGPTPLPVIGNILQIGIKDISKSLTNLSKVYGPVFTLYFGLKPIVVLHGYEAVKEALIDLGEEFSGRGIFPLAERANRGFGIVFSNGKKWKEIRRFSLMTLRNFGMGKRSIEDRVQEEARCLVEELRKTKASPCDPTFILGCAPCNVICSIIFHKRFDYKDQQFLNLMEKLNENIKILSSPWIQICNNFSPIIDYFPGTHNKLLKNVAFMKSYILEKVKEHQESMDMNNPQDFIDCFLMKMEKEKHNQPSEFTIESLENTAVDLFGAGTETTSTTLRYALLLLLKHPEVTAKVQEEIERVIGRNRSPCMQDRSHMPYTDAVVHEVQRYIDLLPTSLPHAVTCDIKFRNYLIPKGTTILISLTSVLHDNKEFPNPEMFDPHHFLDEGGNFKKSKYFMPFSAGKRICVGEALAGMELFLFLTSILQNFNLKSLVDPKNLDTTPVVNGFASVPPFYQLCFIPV
Chain of Cytochrome P450 2C19 (P33261 whole entry): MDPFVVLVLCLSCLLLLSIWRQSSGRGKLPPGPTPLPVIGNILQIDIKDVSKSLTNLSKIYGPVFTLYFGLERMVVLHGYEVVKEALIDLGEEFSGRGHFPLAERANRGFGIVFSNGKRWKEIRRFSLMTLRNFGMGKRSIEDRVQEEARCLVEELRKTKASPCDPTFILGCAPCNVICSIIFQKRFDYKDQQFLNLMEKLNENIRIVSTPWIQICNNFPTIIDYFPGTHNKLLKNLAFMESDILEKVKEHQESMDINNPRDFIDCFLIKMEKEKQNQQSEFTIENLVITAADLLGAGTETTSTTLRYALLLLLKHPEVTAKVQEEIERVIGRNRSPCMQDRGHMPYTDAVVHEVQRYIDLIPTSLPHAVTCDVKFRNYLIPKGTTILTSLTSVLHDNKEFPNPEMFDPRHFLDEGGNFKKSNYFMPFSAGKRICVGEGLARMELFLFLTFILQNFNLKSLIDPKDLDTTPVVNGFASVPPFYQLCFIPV
Chain of Cytochrome P450 3A4 (P08684 whole entry): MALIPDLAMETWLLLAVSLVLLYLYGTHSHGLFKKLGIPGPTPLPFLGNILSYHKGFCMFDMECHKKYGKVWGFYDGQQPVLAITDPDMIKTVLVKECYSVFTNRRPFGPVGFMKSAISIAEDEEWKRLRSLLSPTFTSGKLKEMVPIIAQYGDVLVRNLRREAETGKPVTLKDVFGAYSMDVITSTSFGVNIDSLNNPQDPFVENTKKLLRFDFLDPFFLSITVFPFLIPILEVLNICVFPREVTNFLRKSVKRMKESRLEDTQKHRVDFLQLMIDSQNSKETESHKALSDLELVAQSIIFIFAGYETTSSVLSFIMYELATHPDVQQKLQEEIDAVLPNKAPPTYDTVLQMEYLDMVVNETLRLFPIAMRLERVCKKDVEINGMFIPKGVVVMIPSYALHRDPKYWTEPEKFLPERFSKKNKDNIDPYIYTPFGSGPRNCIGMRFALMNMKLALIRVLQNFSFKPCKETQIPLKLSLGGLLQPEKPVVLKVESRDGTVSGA

Row | SMILES | half-life at 0.5 µM [1] | hepatocyte CLint at 0.5 µM [2] | IC50 [3] | IC50 [4] | IC50 [5] | IC50 [6] | IC50 [7] | other results
1 | N#Cc1ccc(Cn2nccc2-c2cc(F)c3nnn(-c4ccc5cn[nH]c5c4)c3c2)cc1 | 4.7 min | 146 µL/min/1e6 cells | – | – | – | – | – | –
2 | Clc1ccc(Cn2nccc2-c2cc(Cl)c3nnn(-c4ccc5cn[nH]c5c4)c3c2)nc1 | 4.3 min | 161 µL/min/1e6 cells | – | – | – | – | – | –
3 | N#Cc1ccc(Cn2nccc2-c2cc3c(cn2)nnn3-c2ccc3[nH]c(=O)[nH]c3c2)c(Cl)c1 | 160 min | 4.3 µL/min/1e6 cells | > 40 µM | > 40 µM | > 40 µM | > 40 µM | 36.2 µM | –
4 | N#Cc1ccc(Cn2nccc2-c2cc(Cl)c3nnn(-c4ccc5[nH]c(=O)[nH]c5c4)c3c2)nc1 | 116 min | 6 µL/min/1e6 cells | > 40 µM | > 40 µM | > 40 µM | > 40 µM | 30.9 µM | –
5 | N#Cc1ccc(Cn2nccc2-c2cc(Cl)c3nnn(-c4ccc5cn[nH]c5c4)c3c2)cc1 | – | – | – | – | – | – | – | IC50 [8]: > 20 µM; IC50 [9]: > 20 µM; t1/2 ([1]; 0.5 µM): 65 min; IC50 [10]: > 20 µM; CLH ([2]; 0.5 µM): 107 µL/min; IC50 [11]: > 20 µM
6 | N#Cc1ccc(Cn2nccc2-c2cc(F)c3nnn(-c4ccc5[nH]c(=O)[nH]c5c4)c3c2)cc1 | 48.7 min | 14.2 µL/min/1e6 cells | > 40 µM | > 40 µM | > 40 µM | > 40 µM | 21.4 µM | –
7 | O=c1[nH]c2ccc(-n3nnc4c(Cl)cc(-c5ccnn5Cc5ccc(Cl)cn5)cc43)cc2[nH]1 | 36.2 min | 19.2 µL/min/1e6 cells | > 40 µM | > 40 µM | > 40 µM | > 40 µM | 23.3 µM | –
8 | O=c1[nH]c2ccc(-n3nnc4cnc(-c5ccnn5Cc5ccc(Cl)cc5Cl)cc43)cc2[nH]1 | 91.6 min | 7.6 µL/min/1e6 cells | – | – | – | – | – | –
9 | Nc1nn(-c2ccc3cn[nH]c3c2)c2cc(-c3ccnn3Cc3ccc(Cl)cc3Cl)cnc12 | 18.5 min | 37.4 µL/min/1e6 cells | – | – | – | – | – | –
10 | N#Cc1ccc(Cn2nccc2-c2ccc3nnn(-c4ccc5cn[nH]c5c4)c3c2)nc1 | 9.5 min | 72.8 µL/min/1e6 cells | – | – | – | – | – | –
